Measurements published in US7601739B2, “Compounds having antiestrogenic and tissue selective estrogenic properties, and compounds with anti-androgenic properties for treatment of prostate cancer and androgen receptor dependent diseases” (Virgina Commonwealth University, priority 2006, dated 2009).
“Also recorded” adds a separate entry of the source.

Biological target: T1, hERα (Homo sapiens, UniProt P03372)
T1 construct: the full length hERα was inserted into pGAD-GAL4 and pGBD-GAL4 vectors; expressed in transfected cells; host or cells: S. cerevisiae Y190 transformed with pGBT-hER (pGBKT7) and pGAD-hER (pGADT7)
T1 sequence (P03372 1-595) 1: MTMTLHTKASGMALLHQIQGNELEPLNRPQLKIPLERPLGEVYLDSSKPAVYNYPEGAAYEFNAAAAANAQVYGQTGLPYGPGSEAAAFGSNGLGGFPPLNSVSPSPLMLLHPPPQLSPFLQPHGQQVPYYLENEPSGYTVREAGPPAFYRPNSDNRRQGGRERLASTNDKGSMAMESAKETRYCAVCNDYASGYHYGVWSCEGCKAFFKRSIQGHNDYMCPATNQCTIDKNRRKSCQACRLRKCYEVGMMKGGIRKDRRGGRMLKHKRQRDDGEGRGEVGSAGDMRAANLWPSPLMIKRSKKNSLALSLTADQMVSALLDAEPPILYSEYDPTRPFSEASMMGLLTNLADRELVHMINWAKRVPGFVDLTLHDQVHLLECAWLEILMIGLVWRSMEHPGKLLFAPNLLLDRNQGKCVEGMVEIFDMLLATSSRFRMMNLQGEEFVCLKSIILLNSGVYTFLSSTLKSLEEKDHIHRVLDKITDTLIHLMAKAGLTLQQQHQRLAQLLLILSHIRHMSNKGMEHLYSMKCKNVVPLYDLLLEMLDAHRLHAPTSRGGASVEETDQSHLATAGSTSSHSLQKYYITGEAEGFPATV
T1 sequence (P03372 1-595) 2: T1 sequence (P03372 1-595) 1
Assay: Yeast two-hybrid and filter lift assay of hERα dimerization
Assay type: cell-based
Protocol: The transformed yeasts with yeast two-hybrid vectors were cultured in synthetic medium lacking trytophan, and leucine. […] After that, the membranes were soaked in 0.4 ml Z-buffer/Xgal (60 mM Na2HPO4, 40 mM NaH2PO410 mM KCl, 1 mM MgSO4, 0.1% SDS, 50 mM -mercaptoethanol, 20 mM Xgal). The pictures of the results were taken within 2 and 3 hours after the -galactosidase assay was processed.
Dimerization of estrogen receptor plays an essential role in regulating estrogen receptor's functions including DNA binding, transactivation, and coactivator recruitment. In this study, yeast two hybrid and filter lift assays were used to determine the ability of compounds 2 and 6 to interrupt the dimerization of hERα. For setting up yeast two hybrid assay, the full length hERα was inserted into pGAD-GAL4 and pGBD-GAL4 vectors. In pGBD-GAL4, hERα was fused to the GAL4 DNA binding domain through its N terminus. In pGAD-GA14, hERα was fused to the GAL4 activation domain through its N terminus. When the dimerization of hERα occurs mainly through its C terminus, the GAL4 DNA binding domain binds to the repeated GAL4 response element located in front of the β-gal reporter gene and the whole complex, GAL4-BD/hERα/hERα/GAL4-AD, turns on the synthesis of the product of β-gal reporter gene. […] Filter lift assay in which X-gal was used, was employed to qualitatively determine the activity of β-galactosidase.

CCCCNC(=O)CCCCCCCCCCOCC1Cc2ccccc2CN1C(=O)c1cccc(O)c1 (stereo not drawn) [Compound 6]
inhibitory activity against hERα dimerization in combination with estrogen (combined with estrogen): inhibitory activity is higher than tamoxifen's; also recorded: obvious inhibitory activity
blue color change of yeast colony in combination with estrogen (estrogen's colony as reference, more blue = less inhibition): slight blue color change
induction of hERα dimerization, compound alone (tested alone): did not induce hERα dimerization; also recorded: do not promote the dimerization of hERα
